One may read the IC50 as the concentration needed to halve the response being measured. For orientation: inhibition means how much of the control response was suppressed.

We go through 30 compounds from ChEMBL document CHEMBL5370538, “Discovery of novel 6-p-tolyl-3-(3,4,5-trimethoxybenzyl)-7H-[1,2,4]triazolo[3,4-b][1,3,4]thiadiazine derivative as a potent tubulin inhibitor with promising in vivo antitumor activity” (Eur J Med Chem, 2023).

One series concerns HT-29. In words: Antiproliferative activity against human HT-29 cells assessed as cell growth inhibition incubated for 48 hrs by MTT assay. Format: functional, cell-based. The note with it: HT-29, 48 h. In general terms: Tetrazolium assays rely on reduction of a dye to a coloured formazan, in cell work by metabolically active cells.
For series [1], the target named is T1, Tubulin (Homo sapiens) (UniProt P68371+Q9H4B7+P0DPH7+P68366+Q13509+Q71U36+P04350+Q3ZCM7+P07437+P68363+Q9BQE3+Q6PEY2+Q13885+Q9BVA1+Q9BUF5). In words: Inhibition of tubulin polymerization (unknown origin) at 10 uM measured for 20 mins in presence of GTP by spectrophotometry analysis. Format: protein-complex assay.
In the next series the test system is MDA-MB-231. In words: Antiproliferative activity against human MDA-MB-231 cells assessed as cell growth inhibition incubated for 48 hrs by MTT assay. The class given is functional, cell-based. As to conditions: MDA-MB-231, 48 h.
A further series concerns A549. The series is described as follows: Antiproliferative activity against human A549 cells assessed as cell growth inhibition incubated for 48 hrs by MTT assay. The class given is functional, cell-based. The note with it: A549, 48 h.
Another series relates to HeLa. The series is described as follows: Antiproliferative activity against human HeLa cells assessed as cell growth inhibition incubated for 48 hrs by MTT assay. Format: functional, cell-based.
A short description of series [2]: Antiproliferative activity against human HEK293 cells assessed as cell growth inhibition incubated for 48 hrs by MTT assay. Format: toxicity, cell-based.
Series [3] addresses T1, Tubulin (Homo sapiens). The series is described as follows: Inhibition of tubulin polymerization (unknown origin) at 10 uM measured for 20 mins in presence of GTP by spectrophotometry analysis relative to control. The class given is protein-complex assay.

Active and inactive are the calls of the source. The calls are words filed in the database; no cut-off is given here.

Turning to `COc1cc(OCc2nnc3n2N=C(c2ccc(Cl)c(Cl)c2)CS3)cc(OC)c1OC`, the IC50 in the series with HT-29 was found to be 48.1 µM.

For the compound `COc1cc(Cc2nnc3n2N=C(c2ccc([N+](=O)[O-])cc2)CS3)cc(OC)c1OC`, in the series with HT-29, the half-maximal inhibitory concentration (IC50) was more than 50 µM.

Regarding `COc1ccc(C2=Nn3c(Cc4cc(OC)c(OC)c(OC)c4)nnc3SC2)cc1O`, the IC50 in the series with HT-29 was found to be 9.69 µM.

On to `CC(=O)O[C@H]1C(=O)[C@@]2(C)[C@H]([C@H](OC(=O)c3ccccc3)[C@]3(O)C[C@H](OC(=O)[C@H](O)[C@@H](NC(=O)c4ccccc4)c4ccccc4)C(C)=C1C3(C)C)[C@]1(OC(C)=O)CO[C@@H]1C[C@@H]2O`, for which the inhibition entry on Tubulin (Homo sapiens) [1] is “inactive”.

Take `COc1ccc(C2=Nn3c(Cc4cc(OC)c(OC)c(OC)c4)nnc3SC2)cc1`: the IC50 with HT-29 came to 42.8 µM.

Regarding `COc1ccc(C2=Nn3c(COc4cc(OC)c(OC)c(OC)c4)nnc3SC2)cc1[N+](=O)[O-]`, the IC50 in the series on HT-29 was more than 50 µM.

`COc1ccc(C2=Nn3c(COc4cc(OC)c(OC)c(OC)c4)nnc3SC2)cc1N`: in the series with HT-29, the IC50 was 4.93 µM.

Regarding `COc1cc(Cc2nnc3n2N=C(c2ccc(C(F)(F)F)cc2)CS3)cc(OC)c1OC`, in the series with HT-29, the IC50 was 5.03 µM.

As for `COc1cc(Cc2nnc3n2N=C(c2ccccc2F)CS3)cc(OC)c1OC`, the IC50 in the series on HT-29 turned out to be 44.6 µM.

As for `COc1ccc(C2=Nn3c(COc4cc(OC)c(OC)c(OC)c4)nnc3SC2)cc1OC`, in the series on HT-29, the IC50 was more than 50 µM.

As for `COc1cc(Cc2nnc3n2N=C(c2ccc(-c4ccccc4)cc2)CS3)cc(OC)c1OC`, the IC50 in the series on HT-29 was more than 50 µM.

For the compound `COc1cccc(C2=Nn3c(Cc4cc(OC)c(OC)c(OC)c4)nnc3SC2)c1`, the IC50 in the series on HT-29 was 32 µM.

`COc1cc(Cc2nnc3n2N=C(c2ccc(F)cc2)CS3)cc(OC)c1OC`: in the series on HT-29, the IC50 was more than 50 µM.

Take `COc1cc(OCc2nnc3n2N=C(c2ccc(N)cc2)CS3)cc(OC)c1OC`: the IC50 in the series on HT-29 is more than 50 µM.

As for `COc1ccc(C2=Nn3c(COc4cc(OC)c(OC)c(OC)c4)nnc3SC2)cc1O`, the IC50 in the series with HT-29 worked out at 36.4 µM.

Regarding `COc1ccc(Cc2nnc(SCC(=O)c3ccc(C)cc3)n2N)c(OC)c1OC`, the half-maximal inhibitory concentration (IC50) in the series with HT-29 was 0.62 µM; in the series with MDA-MB-231 it was more than 50 µM; in the series with A549 it was 11.8 µM; in the series on HeLa, 9.02 µM. Moreover, the IC50 at 48 h in series [2] was more than 100 µM.

On to `COc1cc(OCc2nnc3n2N=C(c2ccc(C(F)(F)F)cc2)CS3)cc(OC)c1OC`, for which, in the series on HT-29, the IC50 is more than 50 µM.

For the compound `COc1ccc(C2=Nn3c(COc4cc(OC)c(OC)c(OC)c4)nnc3SC2)cc1OC(C)=O`, the IC50 in the series on HT-29 was found to be 26.2 µM.

Take `COc1ccc(/C=C\c2cc(OC)c(OC)c(OC)c2)cc1O` [COMBRETASTATIN A4]: the results for the IC50 in the series with HT-29, in the series with MDA-MB-231 and in the series on HeLa were 1.18 µM, 0.077 µM and 0.043 µM, respectively.

As to `COc1ccc(C2=Nn3c(COc4cc(OC)c(OC)c(OC)c4)nnc3SC2)cc1F`, the IC50 in the series on HT-29 was more than 50 µM.

For the compound `COc1ccc(C2=Nn3c(Cc4cc(OC)c(OC)c(OC)c4)nnc3SC2)cc1[N+](=O)[O-]`, the 50% inhibitory concentration (IC50) with HT-29 was 49.2 µM.

As to `COc1cc(Cc2nnc3n2N=C(c2cccs2)CS3)cc(OC)c1OC`, in the series on HT-29, the IC50 is more than 50 µM.

As to `COc1cc(OCc2nnc3n2N=C(c2ccc(N(C)C)cc2)CS3)cc(OC)c1OC`, the IC50 in the series on HT-29 was 0.41 µM; in the series on MDA-MB-231, 9.73 µM; with A549, more than 50 µM; with HeLa, 2.2 µM. The inhibition at Tubulin (Homo sapiens) [3] came out at 12%. In addition, in series [2], the IC50 at 48 h was more than 100 µM.

Take `COc1cc(Cc2nnc3n2N=C(c2ccc(Cl)cc2)CS3)cc(OC)c1OC`: the IC50 in the series with HT-29 worked out at 1.02 µM; in the series on MDA-MB-231, 4.63 µM; in the series on A549, 5.77 µM; in the series with HeLa it was 1.33 µM. For the same compound, the inhibition on Tubulin (Homo sapiens) [3] came to 30%. Besides, in series [2], the 50% inhibitory concentration (IC50) at 48 h is more than 100 µM.

In the case of `COc1cc(Cc2nnc3n2N=C(c2ccccc2)CS3)cc(OC)c1OC`, the IC50 in the series on HT-29 was more than 50 µM.

For the compound `COc1cc(OCc2nnc3n2N=C(c2ccc(C)cc2)CS3)cc(OC)c1OC`, the IC50 in the series with HT-29 is 0.46 µM; in the series with MDA-MB-231, 12.8 µM; in the series with A549, 30.6 µM; with HeLa, more than 50 µM. Further, the inhibition on Tubulin (Homo sapiens) [3] was determined as 11%. The IC50 at 48 h in series [2] is more than 100 µM.

On to `COc1cc(Cc2nnc3n2N=C(c2ccc(Br)cc2)CS3)cc(OC)c1OC`, for which the IC50 in the series on HT-29 is 43.6 µM.

With `COc1cc(OCc2nnc3n2N=C(c2ccc(SC)cc2)CS3)cc(OC)c1OC`, the IC50 in the series with HT-29 was more than 50 µM.

Regarding `COc1ccc(C2=Nn3c(Cc4cc(OC)c(OC)c(OC)c4)nnc3SC2)cc1N`, the IC50 in the series on HT-29 was more than 50 µM.

For the compound `COc1cc(Cc2nnc3n2N=C(c2ccc(N(C)C)cc2)CS3)cc(OC)c1OC`, the IC50 in the series on HT-29 was 35.2 µM.
